Our source for the IC50 and Activity values is ChEMBL document CHEMBL5055662, “Characterization of an aromatic trifluoromethyl ketone as a new warhead for covalently reversible kinase inhibitor design” (Bioorg Med Chem, 2021).

In assay [1] the target is Fibroblast growth factor receptor 1 (Homo sapiens, UniProt P11362). Briefly: Inhibition of FGFR1 (unknown origin) using Tyr04 peptide as substrate incubated for 1 hr in presence of ATP by FRET based Z'-LYTE assay.
In assay [2] the target is Fibroblast growth factor receptor 3 (Homo sapiens, UniProt P22607). Briefly: Inhibition of FGFR3 (unknown origin) using Tyr04 peptide as substrate incubated for 1 hr in presence of ATP by FRET based Z'-LYTE assay.
For assay [3], the target named is Fibroblast growth factor receptor 2 (Homo sapiens, UniProt P21802). Briefly: Inhibition of FGFR2 (unknown origin) using Tyr04 peptide as substrate incubated for 1 hr in presence of ATP by FRET based Z'-LYTE assay.
In assay [4] the target is Fibroblast growth factor receptor 4 (Homo sapiens) (UniProt P22455). Briefly: Reversible covalent binding affinity to recombinant His-tagged human FGFR4 expressed in baculovirus expression system assessed as recovery of kinase activity preincubated for 120 mins followed by dialysis of protein for 3 days by MALDI-TOF MS analysis relative to control. Particulars: time 4440.0 min.

Assay [5] has as its target T1, Tyrosine-protein kinase JAK3 (Homo sapiens, UniProt P52333).
T1 sequence (P52333 whole entry): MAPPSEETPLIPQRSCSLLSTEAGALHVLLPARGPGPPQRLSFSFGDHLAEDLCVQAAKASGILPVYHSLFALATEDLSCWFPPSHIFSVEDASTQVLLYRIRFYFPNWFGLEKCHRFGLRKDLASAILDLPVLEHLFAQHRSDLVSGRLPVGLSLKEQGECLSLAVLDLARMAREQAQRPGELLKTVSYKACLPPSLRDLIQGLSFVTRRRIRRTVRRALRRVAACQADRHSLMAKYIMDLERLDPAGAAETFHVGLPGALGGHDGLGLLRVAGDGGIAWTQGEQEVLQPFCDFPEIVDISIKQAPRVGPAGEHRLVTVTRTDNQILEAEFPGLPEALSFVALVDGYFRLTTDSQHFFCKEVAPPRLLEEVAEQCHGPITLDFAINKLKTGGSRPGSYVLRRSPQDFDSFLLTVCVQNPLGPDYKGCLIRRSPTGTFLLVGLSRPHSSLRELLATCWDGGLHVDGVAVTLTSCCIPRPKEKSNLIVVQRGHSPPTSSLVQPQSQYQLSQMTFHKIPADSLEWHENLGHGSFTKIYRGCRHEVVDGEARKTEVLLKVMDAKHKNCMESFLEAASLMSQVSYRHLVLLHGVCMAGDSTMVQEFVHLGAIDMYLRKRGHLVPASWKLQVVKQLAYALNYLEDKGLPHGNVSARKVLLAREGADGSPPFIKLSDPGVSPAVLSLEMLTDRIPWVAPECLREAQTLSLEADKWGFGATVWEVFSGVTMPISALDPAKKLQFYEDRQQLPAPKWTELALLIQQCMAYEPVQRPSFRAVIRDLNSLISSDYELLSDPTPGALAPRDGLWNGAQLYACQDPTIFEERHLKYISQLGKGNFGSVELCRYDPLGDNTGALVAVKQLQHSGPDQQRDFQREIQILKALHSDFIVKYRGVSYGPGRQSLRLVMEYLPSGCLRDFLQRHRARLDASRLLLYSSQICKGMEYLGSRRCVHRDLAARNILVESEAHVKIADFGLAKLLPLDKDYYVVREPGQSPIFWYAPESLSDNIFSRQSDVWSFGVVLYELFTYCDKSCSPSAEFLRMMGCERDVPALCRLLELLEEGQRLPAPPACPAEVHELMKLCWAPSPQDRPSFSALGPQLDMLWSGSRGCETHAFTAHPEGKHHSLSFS
Briefly: Inhibition of JAK3 (unknown origin) incubated for 1 hr in presence of ATP and substrate by FRET based Z'-LYTE assay.

Fibroblast growth factor receptor 1, sequence (P11362 whole entry): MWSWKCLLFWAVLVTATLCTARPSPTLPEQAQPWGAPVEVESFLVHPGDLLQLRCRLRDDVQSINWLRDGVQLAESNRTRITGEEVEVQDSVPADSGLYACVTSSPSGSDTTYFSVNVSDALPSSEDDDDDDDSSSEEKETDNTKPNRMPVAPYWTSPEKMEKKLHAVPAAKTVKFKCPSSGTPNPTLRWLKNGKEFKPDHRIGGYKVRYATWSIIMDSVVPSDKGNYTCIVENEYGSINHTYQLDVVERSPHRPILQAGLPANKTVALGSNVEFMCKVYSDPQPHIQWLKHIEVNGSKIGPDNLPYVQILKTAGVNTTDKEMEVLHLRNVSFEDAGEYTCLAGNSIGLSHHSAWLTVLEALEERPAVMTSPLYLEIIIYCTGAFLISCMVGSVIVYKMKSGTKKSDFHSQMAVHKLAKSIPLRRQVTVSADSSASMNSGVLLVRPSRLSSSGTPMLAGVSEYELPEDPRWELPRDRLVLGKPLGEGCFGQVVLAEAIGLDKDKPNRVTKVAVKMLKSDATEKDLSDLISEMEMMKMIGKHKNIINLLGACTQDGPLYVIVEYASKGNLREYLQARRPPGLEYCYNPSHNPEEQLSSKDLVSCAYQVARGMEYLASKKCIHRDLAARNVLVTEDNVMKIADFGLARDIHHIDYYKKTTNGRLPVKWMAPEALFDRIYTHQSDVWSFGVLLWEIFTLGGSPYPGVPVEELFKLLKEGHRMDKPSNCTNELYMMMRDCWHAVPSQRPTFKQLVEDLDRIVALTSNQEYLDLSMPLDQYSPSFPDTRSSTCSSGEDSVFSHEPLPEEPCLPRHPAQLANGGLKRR
Fibroblast growth factor receptor 2, sequence (P21802 whole entry): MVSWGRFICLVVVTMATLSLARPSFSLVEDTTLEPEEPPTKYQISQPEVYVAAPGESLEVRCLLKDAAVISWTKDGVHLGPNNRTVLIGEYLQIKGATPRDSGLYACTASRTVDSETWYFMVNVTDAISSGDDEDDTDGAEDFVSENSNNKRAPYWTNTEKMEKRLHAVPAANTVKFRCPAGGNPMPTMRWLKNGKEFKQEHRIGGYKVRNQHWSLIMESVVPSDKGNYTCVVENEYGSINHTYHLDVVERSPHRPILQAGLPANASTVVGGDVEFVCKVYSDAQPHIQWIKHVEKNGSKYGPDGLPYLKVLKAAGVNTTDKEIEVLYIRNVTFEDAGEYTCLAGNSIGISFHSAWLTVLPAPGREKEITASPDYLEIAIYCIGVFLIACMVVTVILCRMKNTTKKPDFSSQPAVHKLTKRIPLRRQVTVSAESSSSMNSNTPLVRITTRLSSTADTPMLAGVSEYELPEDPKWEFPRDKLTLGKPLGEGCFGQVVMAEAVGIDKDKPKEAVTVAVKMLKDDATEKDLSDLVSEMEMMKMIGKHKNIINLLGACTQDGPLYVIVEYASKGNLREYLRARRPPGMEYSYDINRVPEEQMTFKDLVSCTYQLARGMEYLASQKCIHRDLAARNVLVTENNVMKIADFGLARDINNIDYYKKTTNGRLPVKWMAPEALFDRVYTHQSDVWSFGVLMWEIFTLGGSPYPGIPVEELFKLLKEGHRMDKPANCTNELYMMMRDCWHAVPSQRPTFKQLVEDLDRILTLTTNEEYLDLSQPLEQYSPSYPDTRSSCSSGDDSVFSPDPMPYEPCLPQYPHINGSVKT
Fibroblast growth factor receptor 3, sequence (P22607 whole entry): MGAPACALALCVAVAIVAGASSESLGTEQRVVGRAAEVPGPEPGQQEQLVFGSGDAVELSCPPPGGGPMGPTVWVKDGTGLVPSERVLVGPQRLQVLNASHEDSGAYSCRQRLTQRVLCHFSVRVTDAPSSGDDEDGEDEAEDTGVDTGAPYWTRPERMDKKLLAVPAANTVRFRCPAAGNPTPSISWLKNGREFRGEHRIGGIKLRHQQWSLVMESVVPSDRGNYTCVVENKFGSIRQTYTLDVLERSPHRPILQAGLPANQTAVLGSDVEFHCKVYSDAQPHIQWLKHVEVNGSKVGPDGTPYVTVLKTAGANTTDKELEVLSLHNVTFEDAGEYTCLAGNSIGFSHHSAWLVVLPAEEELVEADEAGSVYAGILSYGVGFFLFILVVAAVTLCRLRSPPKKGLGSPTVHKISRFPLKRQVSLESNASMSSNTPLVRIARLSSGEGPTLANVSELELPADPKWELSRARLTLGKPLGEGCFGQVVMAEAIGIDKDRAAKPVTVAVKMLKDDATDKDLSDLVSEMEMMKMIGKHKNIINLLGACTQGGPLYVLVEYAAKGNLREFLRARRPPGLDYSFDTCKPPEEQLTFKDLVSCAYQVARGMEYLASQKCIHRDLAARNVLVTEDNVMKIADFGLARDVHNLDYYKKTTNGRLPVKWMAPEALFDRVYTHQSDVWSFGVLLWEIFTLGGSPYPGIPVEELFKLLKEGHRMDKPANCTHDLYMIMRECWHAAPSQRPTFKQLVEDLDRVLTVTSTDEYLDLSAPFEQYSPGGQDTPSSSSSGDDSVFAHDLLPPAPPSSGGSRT
Fibroblast growth factor receptor 4 (Homo sapiens), sequence (P22455 22-802 limits assumed): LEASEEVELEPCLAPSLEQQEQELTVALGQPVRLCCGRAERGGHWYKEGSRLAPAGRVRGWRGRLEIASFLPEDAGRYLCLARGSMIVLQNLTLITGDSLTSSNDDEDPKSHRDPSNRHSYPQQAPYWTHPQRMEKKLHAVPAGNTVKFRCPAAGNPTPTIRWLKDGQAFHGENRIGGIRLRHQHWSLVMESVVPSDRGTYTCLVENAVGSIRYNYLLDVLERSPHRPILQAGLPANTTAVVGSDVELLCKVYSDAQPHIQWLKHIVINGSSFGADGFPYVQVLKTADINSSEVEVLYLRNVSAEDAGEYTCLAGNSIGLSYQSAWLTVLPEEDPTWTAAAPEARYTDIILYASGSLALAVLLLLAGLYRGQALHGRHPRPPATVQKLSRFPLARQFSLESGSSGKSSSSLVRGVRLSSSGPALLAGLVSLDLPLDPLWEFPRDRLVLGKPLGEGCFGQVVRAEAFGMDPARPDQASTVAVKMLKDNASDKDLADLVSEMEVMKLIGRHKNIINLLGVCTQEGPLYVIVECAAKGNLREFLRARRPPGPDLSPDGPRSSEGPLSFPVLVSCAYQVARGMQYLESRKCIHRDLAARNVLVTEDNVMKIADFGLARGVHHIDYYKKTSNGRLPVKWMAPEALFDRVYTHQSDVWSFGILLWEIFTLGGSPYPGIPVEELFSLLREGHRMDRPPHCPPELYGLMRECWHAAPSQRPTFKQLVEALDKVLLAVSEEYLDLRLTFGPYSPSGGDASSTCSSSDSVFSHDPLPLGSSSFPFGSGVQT

The term IC50 denotes the point on the concentration scale where inhibition reaches its midpoint. In the case of `N#Cc1cnc(NC(=O)N2CCCc3ccc(C(=O)C(F)(F)F)nc32)cc1OC1CCOC1` (stereo not given), the IC50 in assay [1], in assay [2] and in assay [3] was more than 10 µM each time.
On to `COCCNc1cc(NC(=O)N2CCCc3ccc(C(=O)C(F)(F)F)nc32)ncc1C#N`, for which the IC50 in assay [1], in assay [2] and in assay [3] was more than 10 µM in each case.
Turning to `Cc1ccc(C(=O)Nc2ccc(CN3CCN(C)CC3)c(C(F)(F)F)c2)cc1C#Cc1cnc2cccnn12`, the Activity in assay [4] amounted to 100%.
For `CCCOc1cc(NC(=O)N2CCCc3ccc(C(=O)C(F)(F)F)nc32)ncc1C#N`, the IC50 in assay [1], in assay [2] and in assay [3] was more than 10 µM each time.
As to `O=C(c1ccc(-c2nc3cnc4[nH]ccc4c3n2C2CCCCC2)o1)C(F)(F)F`, in assay [5], the IC50 worked out at 0.0872 µM.
For `N#Cc1cnc(NC(=O)N2CCCc3ccc(C(=O)C(F)(F)F)nc32)cc1OC1CCCCC1`, the IC50 in assay [1], in assay [2] and in assay [3] was more than 10 µM each time.
Consider `CC(C)Oc1cc(NC(=O)N2CCCc3ccc(C=O)nc32)ncc1C#N`, for which the IC50 in assay [1], in assay [2] and in assay [3] was more than 10 µM each time.
As for `CC(C)Oc1cc(NC(=O)N2CCCc3ccc(C(=O)C(F)(F)F)nc32)ncc1C#N`, the IC50 in assay [1], in assay [2] and in assay [3] was more than 10 µM each time.
On to `COCCOc1cc(NC(=O)N2CCCc3ccc(C(=O)C(F)(F)F)nc32)ncc1C#N`, for which the IC50 in assay [1], in assay [2] and in assay [3] was more than 10 µM in each case.
`COc1cc(NC(=O)N2CCCc3ccc(C(=O)C(F)(F)F)nc32)ncc1C#N`: the IC50 in assay [1], in assay [2] and in assay [3] was more than 10 µM in each case.
For the compound `CCCCOc1cc(NC(=O)N2CCCc3ccc(C(=O)C(F)(F)F)nc32)ncc1C#N`, the IC50 in assay [1], in assay [2] and in assay [3] was more than 10 µM in each case.
Take `N#Cc1cnc(NC(=O)N2CCCc3ccc(C(=O)C(F)(F)F)nc32)cc1OC1CCCC1`: the IC50 in assay [1], in assay [2] and in assay [3] was more than 10 µM in each case.
In the case of `CCOc1cc(NC(=O)N2CCCc3ccc(C(=O)C(F)(F)F)nc32)ncc1C#N`, the IC50 in assay [1], in assay [2] and in assay [3] was more than 10 µM each time.
